Our source for the p65 nuclear translocation, inhibition and IC50 values is patent US11007169B2, “Cis-gnetin H and trans-gnetin H as therapeutic agents” (MIDDLE TENNESSEE STATE UNIVERSITY, priority 2014, dated 2021).

Assay [1] has as its system p65 (RelA) nuclear translocation in THP-1 cells. In words: Indirect immunofluorescence for NF-κB nuclear translocation. The class given is cell-based, human. The following applies: pretreated 1 h, LPS 30 min; Bay 11-7082 10 μM. How it is done: (§1) THP-1 cells were maintained in RPMI 1640 medium supplemented with 10% complement-inactivated FBS and 1% penicillin/streptomycin (complete culture medium) at 37° C. with 5% CO2 supplemented. Cell concentrations were adjusted to desired concentrations for each experiment by centrifugation at 500×g for 5 min and resuspended in complete culture medium with 100 nM of PMA. Cell concentration was adjusted to 5×10^5 cells/ml for all assays and 2.5×10^5 cells/ml were used for NF-κB nuclear translocation assay. Cells were seeded onto 96-, 24-, or 12-well plates and incubated for 48 to 72 h to allow for differentiation. Cells were washed with serum-free RPMI 1640 medium before each experiment to remove the undifferentiated cells.
Differentiated THP-1 cells were pretreated with 50 μM of cis-gnetin H, trans-gnetin H, or 10 μM of Bay 11-7082 for 1 h and stimulated with 1 μg/ml of LPS for 30 min. Bay 11-7082 is a compound that inhibits IKK α/β and IκB α phosphorylation and was used as a positive control (Juliana et al., 2010, J. Biol. Chem., 285:9792-802). Treated cells were fixed, permeabilized, blocked, and stained with NF-κB, p65 primary antibody, Dylight 488 conjugated secondary antibody, and Hoechst 33342 dye, sequentially. The Hoechst and DyLight fluorophores detect changes in nuclear morphology (blue fluorescence) and NF-κB distribution (green fluorescence) respectively. Nuclear Translocation Bioapplication software on the Arrayscan VTI reader was used for image acquisition and analysis. For each well, at least 400 cells were automatically acquired and analyzed. The translocation index was calculated by measuring the average intensity difference of NF-icB between the identified cytoplasmic region and nuclear region.

Assay [2] has as its system TNF-α in LPS-stimulated THP-1 cells. In words: Cytokine response by ELISA, TNF-α. The class given is cell-based, human. The following applies: Homo sapiens, THP-1; 1 μM, 20 ng/ml LPS 4 h. The protocol: as §1
(§2) Differentiated THP-1 cells were pretreated with various concentrations of cis-gnetin H, trans-gnetin H, or 1 μM of dexamethasone for 1 h and stimulated with 20 ng/ml of LPS for 4 h. Dexamethasone is a synthetic glucocorticoid that suppresses cytokine response and was used as a positive control (Abraham et al., 2006, J. Exp. Med., 203:1883-9; Steer et al., J. Biol. Chem., 2000, 275(24):18432-40). Supernatants were collected for human cytokine ELISAs and the manufacturer's protocol was followed to assess the cytokine response. Cells remaining after the supernatant collection were tested for relative viability by Alamar Blue cytotoxicity assay as described earlier.

Assay [3] relates to IL-1β in LPS-stimulated THP-1 cells. In words: Cytokine response by ELISA, IL-1β. The conditions noted are these: Homo sapiens, THP-1; 1 μM, 20 ng/ml LPS 4 h. Type of assay: cell-based, human. How it is done: as §1, §2
Background: ELISA stands for enzyme-linked immunosorbent assay.

In assay [4] the test system is IL-8 in LPS-stimulated THP-1 cells. In words: Cytokine response by ELISA, IL-8. Type of assay: cell-based, human. The following applies: Homo sapiens, THP-1; 1 μM, 20 ng/ml LPS 4 h. The protocol:
as §1, §2

In assay [5] the test system is A549 lung cancer cell line. The conditions noted are these: literature values; read-out: IC50 against the A549 lung cancer cell line; cited from earlier work.

“And” between values parts separate entries of the source, which are not always exact repeats. Equal entries are not always repeated.

Broadly, the inhibition is how much of the control response was suppressed. Low readings indicate a weak effect, high ones a strong effect. By IC50 is commonly meant the concentration that gives 50% inhibition.

For the molecule `Cc1ccc(S(=O)(=O)C=CC#N)cc1` [Bay 11-7082, 3-(4-methylphenylsulfonyl)-2-propenenitrile, reference compound], in assay [1], the p65 nuclear translocation result is on record as “inhibited the p65 nuclear translocation”.

Take `C[C@@H]1C[C@H]2[C@@H]3CCC4=CC(=O)C=C[C@]4(C)[C@@]3(F)[C@@H](O)C[C@]2(C)[C@@]1(O)C(=O)CO` [Dexamethasone, dexamethasone, reference compound]: the results for the inhibition at 1 µM in assay [2], in assay [3] and in assay [4] were 58%, 56% and 63%, respectively.

Regarding `Oc1ccc(C=Cc2cc(O)cc(O)c2)cc1` [Resveratrol, 3,5,4′-trihydroxystilbene], in assay [5], the IC50 was 8.9 µM and > 10 µM.
